According to PubChem BioAssay (NCI):
Where “and” joins values, the source holds several entries; their conditions need not be identical. Identical values can stand only once.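 The compound was tested at five concentrations on cells cultured in 96-well plates, with a 48-hour exposure period. Abbreviation: GI50, concentration required for 50% inhibition of growth. Definition used: TGI = concentration required for complete inhibition of growth.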 Where a SMILES comes first, the peptide text is derived from it. [ ]: non-standard residue; d: D form. The star is where a group is joined. ξ: configuration not given here. NMeF = CN[CH](Cc1ccccc1)C(=O)O; ξNMe2Val = CC(C)C(C(=O)*)N(C)C; NMeV = CN[CH](C(=O)O)C(C)C; OtBu = CC(C)(C)O*

Tests used:
Assay in all cases: NCI-60 cell line screen, 48 h
MCF7 breast = tested on: MCF7 breast
SNB-19 CNS = tested on: SNB-19 CNS
RXF 393 renal = tested on: RXF 393 renal
CAKI-1 renal = tested on: CAKI-1 renal
MDA-MB-231 breast = tested on: MDA-MB-231 breast
PC-3 prostate = tested on: PC-3 prostate
SK-OV-3 ovarian = tested on: SK-OV-3 ovarian
HOP-62 NSCLC = tested on: HOP-62 NSCLC
SK-MEL-5 melanoma = tested on: SK-MEL-5 melanoma
SF-268 CNS = tested on: SF-268 CNS

| SMILES | TGI (MCF7 breast) | TGI (SNB-19 CNS) | TGI (RXF 393 renal) | TGI (CAKI-1 renal) | TGI (MDA-MB-231 breast) | TGI (PC-3 prostate) | TGI (SK-OV-3 ovarian) | TGI (HOP-62 NSCLC) | TGI (SK-MEL-5 melanoma) | GI50 (SNB-19 CNS) | GI50 (RXF 393 renal) | GI50 (CAKI-1 renal) | GI50 (SK-OV-3 ovarian) | GI50 (SK-MEL-5 melanoma) | TGI (SF-268 CNS) | GI50 (MCF7 breast) | GI50 (MDA-MB-231 breast) |
| --- | --- | --- | --- | --- | --- | --- | --- | --- | --- | --- | --- | --- | --- | --- | --- | --- | --- |
| CCN(C(=O)N[C@H](C(=O)N[C@@H](CSC)C(=O)N[C@@H](C)C(=O)OC)C(C)C)c1ccccc1 | 31.8 µM | 33.4 µM | 32.2 µM | 36.3 µM | 29 µM | 31.6 µM | 30.7 µM | 36.4 µM | 30.8 µM | – | – | – | – | – | – | – | – |
| O=C1C(=C([O-])c2ccccc2)C(=O)c2ccccc21.O=C1C(=C([O-])c2ccccc2)C(=O)c2ccccc21.[Ni+2] | – | > 100 µM | > 100 µM | > 100 µM | – | – | 98.4 µM | – | 54.9 µM | 58.8 µM | 48.8 µM | 33.9 µM | 23.1 µM | 18.2 µM | – | – | – |
| CCO/C(O)=c1/s/c(=C(\C#N)c2nc3ccccc3[nH]2)n(-c2ccccc2)c1=N | – | > 100 µM | > 100 µM | > 100 µM | – | – | > 100 µM | > 100 µM | > 100 µM | – | – | – | – | – | > 100 µM | – | – |
| Cn1cc2c3ccccc3nc-2c2ccccc21 | 10 µM | 10.6 µM | – | 7.79 µM | 5.73 µM | 5.78 µM | 9.3 µM | 4.16 µM | 3.64 µM | – | – | – | – | – | 6.86 µM | – | – |
| CC(C)C(C(=O)N(C)C(Cc1ccccc1)C(=O)N(C)C(C(=O)N(C)C(C(=O)N1CCCC1C(=O)OC(C)(C)C)C(C)C)C(C)C)N(C)C (stereo not drawn) (ξNMe2Val-[NMeF][NMeV][NMeV]P-OtBu; configuration not given here) | – | > 100 µM | – | – | – | – | – | > 100 µM | 38.8 µM | – | – | – | – | – | > 100 µM | – | – |
| CC1OC(O[C@@H]2C=C3CC[C@@H]4[C@H](CC[C@]5(C)[C@@H](c6ccc(=O)oc6)CC[C@]45O)[C@@]3(C)CC2)C(O)C(OC2OC(CO)C(O)C(O)C2O)C1O (stereo partly drawn) | 0.0804 µM and 0.0468 µM | 0.113 µM and 0.0674 µM | – | 0.0015 µM | 0.0196 µM | 0.00942 µM | – | 0.00151 µM | 0.0175 µM | 0.00038 µM | – | – | – | 0.00014 µM | 0.00983 µM | 0.000196 µM | 0.000388 µM |
| Cc1ccc(S(=O)(=O)N(CCNC(=O)c2cccc(O)c2O)c2cc3c4c(c2)Oc2cccc5c2C4(C)c2c(cccc2O3)O5)cc1 | > 100 µM | > 100 µM | – | > 100 µM | > 100 µM | > 100 µM | > 100 µM | > 100 µM | > 100 µM | – | – | – | – | – | > 100 µM | – | – |
| C=CCOC(=O)Cn1ccc(=O)[nH]c1=O | > 100 µM | > 100 µM | – | > 100 µM | > 100 µM | > 100 µM | > 100 µM | > 100 µM | > 100 µM | – | – | – | – | – | > 100 µM | – | – |
| COc1ccc(C2=Nc3ccccc3N=C(SC)C2)cc1 | – | > 100 µM | > 100 µM | > 100 µM | – | – | > 100 µM | > 100 µM | > 100 µM | – | – | – | – | – | > 100 µM | – | – |
| C=C(C)CCC1C=[N+]([O-])OC(C)(C)C1(C)C (stereo not drawn) | > 100 µM | – | > 100 µM | > 100 µM | > 100 µM | – | > 100 µM | > 100 µM | > 100 µM | – | – | – | – | – | > 100 µM | – | – |
| COC(=O)c1c2c(cc3c1CC1(Cc4ccccc4C1)C3)CCC2 | 23.4 µM | – | 52.9 µM | 78.2 µM | 44.9 µM | 48.1 µM | > 100 µM | > 100 µM | 31.7 µM | – | – | – | – | – | > 100 µM | – | – |
